One experiment addresses BRD4-BD1 (Homo sapiens (Human), UniProt O60885). Put plainly: BRD4 AlphaScreen assay (BRD4-BD1). The format is binding. To be noted: biotin-labeled tetra-acetylated histone H4 peptide. Here is the method: (§1) BRD4-BD1 and BRD4-BD2 assays were conducted in white 384-well polystyrene plate in a final volume of 40 μL for BD1 and 60 μL for BD2. Inhibitors were first serially diluted in DMSO and added to the plate wells before the addition of other reaction components. The final concentration of DMSO in the assay was 1.25% (BD1) and 0.83% (BD2). The assays were carried out at room temperature in the assay buffer (50 mM Tris-HCl, pH 7.5, 0.01% Tween-20, 0.01% BSA, 5 mM DTT), containing 50 nM Biotin-labeled tetra-acetylated histone H4 peptide (H4Ac4) and BRD4-BD1 or BRD4-BD2 protein at concentration less than 1 nM. The incubation for 75 min. was followed by the addition of 20 μL of assay buffer supplemented with Streptavidin donor beads (PerkinElmer 6760002) and GSH Acceptor beads (PerkinElmer-AL109C) at final concentration 2-4 μg/mL under reduced light. After plate sealing, the plate was incubated in the dark at room temperature for 75 min. before reading on a PHERAstar FS plate reader (BMG Labtech). IC50 determination was performed by fitting the curve of percent control activity versus the log of the inhibitor concentration using the GraphPad Prism 5.0 software.
(Bead proximity is the source of the signal in Alpha formats.)

For the next experiment, the target named is BRD4-BD2 (Homo sapiens (Human), UniProt O60885). Put plainly: BRD4 AlphaScreen assay (BRD4-BD2). The format is binding. The settings on record: biotin-labeled tetra-acetylated histone H4 peptide. Here is the method: as §1

This passage reports IC50 results from patent US9957268B2, “1H-pyrrolo[2,3,c]pyridin-7(6H)-ones and pyrazolo[3,4-c]pyridin-7(6H)-ones as inhibitors of BET proteins” (Incyte Corporation, priority 2014, dated 2018).

As for `CC(C)C1Oc2c(cc(C(=O)N3CCOCC3)cc2-c2cn(C)c(=O)c3[nH]ccc23)NC1=O` (stereo not drawn) [Example 33, 2-isopropyl-8-(6-methyl-7-oxo-6,7-dihydro-1H-pyrrolo[2,3-c]pyridin-4-yl)-6-(morpholin-4-ylcarbonyl)-2H-1,4-benzoxazin-3(4H)-one], the IC50 at BRD4-BD1 and at BRD4-BD2 was not above 100 nM in each case.
As for `CC(C)C1Oc2c(cc(C(=O)N(C)C)cc2-c2cn(C)c(=O)c3[nH]ccc23)NC1=O` (stereo not drawn) [Example 34, 2-isopropyl-N,N-dimethyl-8-(6-methyl-7-oxo-6,7-dihydro-1H-pyrrolo[2,3-c]pyridin-4-yl)-3-oxo-3,4-dihydro-2H-1,4-benzoxazine-6-carboxamide], the IC50 against BRD4-BD1 and on BRD4-BD2 was not above 100 nM throughout.
For the compound `CC(C)C1Oc2c(cc(CO)cc2-c2cn(C)c(=O)c3[nH]ccc23)NC1=O` (stereo not drawn) [Example 36, 6-(hydroxymethyl)-2-isopropyl-8-(6-methyl-7-oxo-6,7-dihydro-1H-pyrrolo[2,3-c]pyridin-4-yl)-2H-1,4-benzoxazin-3(4H)-one], the concentration for half-maximal inhibition (IC50) against BRD4-BD1 and against BRD4-BD2 was not above 100 nM throughout.
With `COCc1cc2c(c(-c3cn(C)c(=O)c4[nH]ccc34)c1)OC(C(C)C)C(=O)N2` (stereo not drawn) [Example 37, 2-isopropyl-6-(methoxymethyl)-8-(6-methyl-7-oxo-6,7-dihydro-1H-pyrrolo[2,3-c]pyridin-4-yl)-2H-1,4-benzoxazin-3(4H)-one], the IC50 on BRD4-BD1 and against BRD4-BD2 was not above 100 nM each time.
`CC(C)C1Oc2c(cc(CN)cc2-c2cn(C)c(=O)c3[nH]ccc23)NC1=O` (stereo not drawn) [Example 38, 6-(Aminomethyl)-2-isopropyl-8-(6-methyl-7-oxo-6,7-dihydro-1H-pyrrolo[2,3-c]pyridin-4-yl)-2H-1,4-benzoxazin-3(4H)-one]: the concentration for half-maximal inhibition (IC50) is 100 to 1000 nM at BRD4-BD1 and not above 100 nM against BRD4-BD2.
For `CCS(=O)(=O)NCc1cc2c(c(-c3cn(C)c(=O)c4[nH]ccc34)c1)OC(C(C)C)C(=O)N2` (stereo not drawn) [Example 39, N-{[2-isopropyl-8-(6-methyl-7-oxo-6,7-dihydro-1H-pyrrolo[2,3-c]pyridin-4-yl)-3-oxo-3,4-dihydro-2H-1,4-benzoxazin-6-yl]methyl}ethanesulfonamide], in that order: not above 100 nM and not above 100 nM.
For `CC(=O)NCc1cc2c(c(-c3cn(C)c(=O)c4[nH]ccc34)c1)OC(C(C)C)C(=O)N2` (stereo not drawn) [Example 40, N-{[2-isopropyl-8-(6-methyl-7-oxo-6,7-dihydro-1H-pyrrolo[2,3-c]pyridin-4-yl)-3-oxo-3,4-dihydro-2H-1,4-benzoxazin-6-yl]methyl}acetamide], in that order: not above 100 nM and not above 100 nM.
For `CC(C)C1Oc2c(cc(C(N)=O)cc2-c2cn(C)c(=O)c3[nH]ccc23)NC1=O` (stereo not drawn) [Example 41, 2-isopropyl-8-(6-methyl-7-oxo-6,7-dihydro-1H-pyrrolo[2,3-c]pyridin-4-yl)-3-oxo-3,4-dihydro-2H-1,4-benzoxazine-6-carboxamide], in that order: not above 100 nM and not above 100 nM.
As to `COc1cc2c(c(-c3cn(C)c(=O)c4[nH]ncc34)c1)OC(C1CCCC1)C(=O)N2` (stereo not drawn) [Example 42, 2-Cyclopentyl-6-methoxy-8-(6-methyl-7-oxo-6,7-dihydro-1H-pyrazolo[3,4-c]pyridin-4-yl)-2H-1,4-benzoxazin-3(4H)-one], the IC50 against BRD4-BD1 and against BRD4-BD2 was not above 100 nM each time.
Consider `CC(C)C1Oc2c(cc(-c3ccco3)cc2-c2cn(C)c(=O)c3[nH]ccc23)NC1=O` (stereo not drawn) [Example 43, 6-(2-furyl)-2-isopropyl-8-(6-methyl-7-oxo-6,7-dihydro-1H-pyrrolo[2,3-c]pyridin-4-yl)-2H-1,4-benzoxazin-3(4H)-one], for which the IC50 against BRD4-BD1 is 100 to 1000 nM; against BRD4-BD2, not above 100 nM.
For `CC(C)C1Oc2c(cc(S(C)(=O)=O)cc2-c2cn(C)c(=O)c3[nH]ccc23)NC1=O` (stereo not drawn) [Example 44, 2-isopropyl-8-(6-methyl-7-oxo-6,7-dihydro-1H-pyrrolo[2,3-c]pyridin-4-yl)-6-(methylsulfonyl)-2H-1,4-benzoxazin-3(4H)-one], in that order: not above 100 nM and not above 100 nM.
For `Cn1cc(-c2cc(S(C)(=O)=O)cc3c2OC(C)(C)C(=O)N3)c2cc[nH]c2c1=O` [Example 45, 2,2-dimethyl-8-(6-methyl-7-oxo-6,7-dihydro-1H-pyrrolo[2,3-c]pyridin-4-yl)-6-(methylsulfonyl)-2H-1,4-benzoxazin-3(4H)-one], the IC50 against BRD4-BD1 and against BRD4-BD2 was not above 100 nM each time.
Take `Cn1cc(-c2cc(S(C)(=O)=O)cc3c2OC(c2ccccc2)C(=O)N3)c2cc[nH]c2c1=O` (stereo not drawn) [Example 46, 8-(6-methyl-7-oxo-6,7-dihydro-1H-pyrrolo[2,3-c]pyridin-4-yl)-6-(methylsulfonyl)-2-phenyl-2H-1,4-benzoxazin-3(4H)-one]: the IC50 against BRD4-BD1 and on BRD4-BD2 was not above 100 nM throughout.
In the case of `CC(C)C1Oc2c(-c3cn(C)c(=O)c4[nH]ccc34)cc(S(C)(=O)=O)cc2N(C)C1=O` (stereo not drawn) [Example 47, 2-isopropyl-4-methyl-8-(6-methyl-7-oxo-6,7-dihydro-1H-pyrrolo[2,3-c]pyridin-4-yl)-6-(methylsulfonyl)-2H-1,4-benzoxazin-3(4H)-one], the IC50 at BRD4-BD1 and at BRD4-BD2 was not above 100 nM in each case.
As for `Cn1cc(-c2cc(S(C)(=O)=O)cc3c2OC(CCO)C(=O)N3)c2cc[nH]c2c1=O` (stereo not drawn) [Example 48, 2-(2-hydroxyethyl)-8-(6-methyl-7-oxo-6,7-dihydro-1H-pyrrolo[2,3-c]pyridin-4-yl)-6-(methylsulfonyl)-2H-1,4-benzoxazin-3(4H)-one], the IC50 against BRD4-BD1 and at BRD4-BD2 was not above 100 nM each time.
As to `CC(=O)c1cc2c(c(-c3cn(C)c(=O)c4[nH]ccc34)c1)OC(C(C)C)C(=O)N2` (stereo not drawn) [Example 49, 6-acetyl-2-isopropyl-8-(6-methyl-7-oxo-6,7-dihydro-1H-pyrrolo[2,3-c]pyridin-4-yl)-2H-1,4-benzoxazin-3(4H)-one], the IC50 at BRD4-BD1 and on BRD4-BD2 was not above 100 nM throughout.
`CC(O)c1cc2c(c(-c3cn(C)c(=O)c4[nH]ccc34)c1)OC(C(C)C)C(=O)N2` (stereo not drawn) [Example 50, 6-(1-hydroxyethyl)-2-isopropyl-8-(6-methyl-7-oxo-6,7-dihydro-1H-pyrrolo[2,3-c]pyridin-4-yl)-2H-1,4-benzoxazin-3(4H)-one]: the IC50 on BRD4-BD1 and on BRD4-BD2 was not above 100 nM each time.
For the compound `CCS(=O)(=O)c1cc2c(c(-c3cn(C)c(=O)c4[nH]ccc34)c1)OC(C(C)C)C(=O)N2` (stereo not drawn) [Example 51, 6-(ethylsulfonyl)-2-isopropyl-8-(6-methyl-7-oxo-6,7-dihydro-1H-pyrrolo[2,3-c]pyridin-4-yl)-2H-1,4-benzoxazin-3(4H)-one], the IC50 on BRD4-BD1 and at BRD4-BD2 was not above 100 nM each time.
`CC(C)C1Oc2c(-c3cn(C)c(=O)c4[nH]ccc34)cc(S(C)(=O)=O)cc2N(CC2CC2)C1=O` (stereo not drawn) [Example 53, 4-(cyclopropylmethyl)-2-isopropyl-8-(6-methyl-7-oxo-6,7-dihydro-1H-pyrrolo[2,3-c]pyridin-4-yl)-6-(methyslulfonyl)-2H-1,4-benzoxazin-3(4H)-one]: the IC50 against BRD4-BD1 and at BRD4-BD2 was not above 100 nM each time.
With `CC(C)C1Oc2c(-c3cn(C)c(=O)c4[nH]ccc34)cc(S(=O)(=O)C(C)C)cc2N(C)C1=O` (stereo not drawn) [Example 56, 2-isopropyl-6-(isopropylsulfonyl)-4-methyl-8-(6-methyl-7-oxo-6,7-dihydro-1H-pyrrolo[2,3-c]pyridin-4-yl)-2H-1,4-benzoxazin-3(4H)-one], the IC50 on BRD4-BD1 and at BRD4-BD2 was not above 100 nM throughout.
For the compound `Cn1cc(-c2cc(S(C)(=O)=O)cc3c2OC2(CC2)C(=O)N3)c2cc[nH]c2c1=O` [Example 57, 8-(6-methyl-7-oxo-6,7-dihydro-1H-pyrrolo[2,3-c]pyridin-4-yl)-6-(methylsulfonyl)spiro[1,4-benzoxazine-2,1′-cyclopropan]-3(4H)-one], the half-maximal inhibitory concentration (IC50) at BRD4-BD1 and at BRD4-BD2 was not above 100 nM in each case.
Turning to `Cn1cc(-c2cc(S(C)(=O)=O)cc3c2NC(C)(C)C(=O)N3)c2cc[nH]c2c1=O` [Example 58, 3,3-dimethyl-5-(6-methyl-7-oxo-6,7-dihydro-1H-pyrrolo[2,3-c]pyridin-4-yl)-7-(methylsulfonyl)-3,4-dihydroquinoxalin-2(1H)-one], the IC50 against BRD4-BD1 and against BRD4-BD2 was not above 100 nM throughout.
On to `Cn1cc(-c2cc(S(C)(=O)=O)cc3c2NC2(CCCC2)C(=O)N3)c2cc[nH]c2c1=O` [Example 59, 8′-(6-methyl-7-oxo-6,7-dihydro-1H-pyrrolo[2,3-c]pyridin-4-yl)-6′-(methylsulfonyl)-1′,4′-dihydro-3′H-spiro[cyclopentane-1,2′-quinoxalin]-3′-one], for which the IC50 on BRD4-BD1 and against BRD4-BD2 was not above 100 nM throughout.
For `CC(C)[C@@H]1Nc2c(cc(S(C)(=O)=O)cc2-c2cn(C)c(=O)c3[nH]ccc23)NC1=O` [Example 60, (3S)-3-isopropyl-5-(6-methyl-7-oxo-6,7-dihydro-1H-pyrrolo[2,3-c]pyridin-4-yl)-7-(methylsulfonyl)-3,4-dihydroquinoxalin-2(1H)-one], the IC50 against BRD4-BD1 and against BRD4-BD2 was not above 100 nM each time.

The IC50 is the concentration that gives 50% inhibition. The low end stands for inhibition by little substance, the high end for a need for much substance.
